The nature of this data set: activity coefficient (dimensionless); of the first substance listed, at infinite dilution; xn = mol fraction of the nth substance listed. The conditions noted are these: 101.33 kPa, Liquid, Chromatography, x1 = 0.

± gives the expanded uncertainty stated by the source.

Turning to `C#CCCC` [1-pentyne] + CC[N+]1(C)CCOCC1.N#CN=C=[N-], the activity coefficient runs as follows: (318.15 K) 14.3 ± 1; (328.15 K) 14.8 ± 1; (338.15 K) 15.4 ± 1.1; (348.15 K) 15.9 ± 1.1; (358.15 K) 16.5 ± 1.1; (368.15 K) 17 ± 1.2.
Consider `C=COC(C)=O` [vinyl acetate] + CC[N+]1(C)CCOCC1.N#CN=C=[N-], for which the activity coefficient was 4.22 ± 0.29 (318.15 K); 4.41 ± 0.3 (328.15 K); 4.6 ± 0.31 (338.15 K); 4.78 ± 0.33 (348.15 K); 4.97 ± 0.34 (358.15 K); 5.15 ± 0.35 (368.15 K).
In the case of `CCCC(C)=O` [pentan-2-one] + CC[N+]1(C)CCOCC1.N#CN=C=[N-], the activity coefficient by setting is: (318.15 K) 5.08 ± 0.35; (328.15 K) 5.26 ± 0.36; (338.15 K) 5.45 ± 0.37; (348.15 K) 5.63 ± 0.38; (358.15 K) 5.81 ± 0.4; (368.15 K) 5.98 ± 0.41.
Regarding `CC(C)CO` [2-methyl-1-propanol] + CC[N+]1(C)CCOCC1.N#CN=C=[N-], the activity coefficient amounted to 3.01 ± 0.2 (318.15 K); 2.93 ± 0.2 (328.15 K); 2.86 ± 0.19 (338.15 K); 2.79 ± 0.19 (348.15 K); 2.73 ± 0.19 (358.15 K); 2.67 ± 0.18 (368.15 K).
For the molecule `CCOC(C)=O` [ethyl acetate] + CC[N+]1(C)CCOCC1.N#CN=C=[N-], the activity coefficient reads like this: (318.15 K) 5.67 ± 0.39; (328.15 K) 5.93 ± 0.4; (338.15 K) 6.19 ± 0.42; (348.15 K) 6.45 ± 0.44; (358.15 K) 6.71 ± 0.46; (368.15 K) 6.96 ± 0.47.
In the case of `CO` [methanol] + CC[N+]1(C)CCOCC1.N#CN=C=[N-], the activity coefficient was 0.617 ± 0.043 (318.15 K); 0.631 ± 0.044 (328.15 K); 0.645 ± 0.044 (338.15 K); 0.659 ± 0.045 (348.15 K); 0.672 ± 0.046 (358.15 K); 0.684 ± 0.046 (368.15 K).
Consider `C1CCCCCCC1` [cyclooctane] + CC[N+]1(C)CCOCC1.N#CN=C=[N-], for which the activity coefficient (318.15 K) amounted to 313 ± 22; the activity coefficient (328.15 K) stood at 293 ± 20; the activity coefficient (338.15 K) was found to be 273 ± 19; the activity coefficient (348.15 K) was determined as 257 ± 18; the activity coefficient (358.15 K) stood at 242 ± 17; the activity coefficient (368.15 K) worked out at 229 ± 16.
For `CCCCCCCCC` [nonane] + CC[N+]1(C)CCOCC1.N#CN=C=[N-], the activity coefficient was 1540 ± 110 (318.15 K); 1350 ± 93 (328.15 K); 1190 ± 82 (338.15 K); 1050 ± 73 (348.15 K); 945 ± 65 (358.15 K); 850 ± 59 (368.15 K).
Take `CCCCCCC` [heptane] + CC[N+]1(C)CCOCC1.N#CN=C=[N-]: the activity coefficient reads like this: (298.15 K) 953 ± 66; (308.15 K) 831 ± 57; (318.15 K) 729 ± 50; (328.15 K) 645 ± 44; (338.15 K) 574 ± 40.
With `CC#N` [acetonitrile] + CC[N+]1(C)CCOCC1.N#CN=C=[N-], the activity coefficient runs as follows: (318.15 K) 0.966 ± 0.061; (328.15 K) 1.01 ± 0.06; (338.15 K) 1.06 ± 0.07; (348.15 K) 1.11 ± 0.07; (358.15 K) 1.16 ± 0.07; (368.15 K) 1.21 ± 0.08.
As for `CC1CCCCC1` [methylcyclohexane] + CC[N+]1(C)CCOCC1.N#CN=C=[N-], the activity coefficient was 288 ± 20 (318.15 K); 263 ± 18 (328.15 K); 242 ± 17 (338.15 K); 224 ± 15 (348.15 K); 208 ± 14 (358.15 K); 194 ± 13 (368.15 K).
Take `O` [water] + CC[N+]1(C)CCOCC1.N#CN=C=[N-]: the activity coefficient was found to be 0.324 ± 0.032 (318.15 K); 0.337 ± 0.032 (328.15 K); 0.35 ± 0.032 (338.15 K); 0.364 ± 0.033 (348.15 K); 0.376 ± 0.033 (358.15 K); 0.39 ± 0.034 (368.15 K).
As to `CCCCCC` [hexane] + CC[N+]1(C)CCOCC1.N#CN=C=[N-], the activity coefficient runs as follows: (298.15 K) 608 ± 42; (308.15 K) 539 ± 37; (318.15 K) 482 ± 33.
Consider `C=CCCCCCC` [oct-1-ene] + CC[N+]1(C)CCOCC1.N#CN=C=[N-], for which the activity coefficient came to 496 ± 34 (318.15 K); 445 ± 31 (328.15 K); 402 ± 28 (338.15 K); 364 ± 25 (348.15 K); 333 ± 23 (358.15 K); 307 ± 21 (368.15 K).
Regarding `CCCCCCCCCC` [decane] + CC[N+]1(C)CCOCC1.N#CN=C=[N-], the activity coefficient (318.15 K) stood at 2230 ± 150; the activity coefficient (328.15 K) was found to be 2030 ± 140; the activity coefficient (338.15 K) came to 1880 ± 130; the activity coefficient (348.15 K) amounted to 1740 ± 120; the activity coefficient (358.15 K) turned out to be 1610 ± 110; the activity coefficient (368.15 K) amounted to 1500 ± 100.
Regarding `COC(C)(C)C` [2-methoxy-2-methylpropane] + CC[N+]1(C)CCOCC1.N#CN=C=[N-], the activity coefficient is, setting by setting: (328.15 K) 33.1 ± 2.3; (338.15 K) 34.4 ± 2.4; (348.15 K) 35.6 ± 2.4; (358.15 K) 36.8 ± 2.5; (368.15 K) 38 ± 2.6.
On to `CC(C)CC(C)(C)C` [2,2,4-trimethylpentane] + CC[N+]1(C)CCOCC1.N#CN=C=[N-], for which the activity coefficient worked out at 1220 ± 84 (298.15 K); 1070 ± 74 (308.15 K); 951 ± 66 (318.15 K); 853 ± 59 (328.15 K); 768 ± 53 (338.15 K).
`C#CCCCC` [1-hexyne] + CC[N+]1(C)CCOCC1.N#CN=C=[N-]: the activity coefficient by setting is: (318.15 K) 24.8 ± 1.7; (328.15 K) 25.6 ± 1.8; (338.15 K) 26.4 ± 1.8; (348.15 K) 27.4 ± 1.9; (358.15 K) 28.1 ± 1.9; (368.15 K) 28.9 ± 2.
Consider `C1CCCCCC1` [cycloheptane] + CC[N+]1(C)CCOCC1.N#CN=C=[N-], for which the activity coefficient is, setting by setting: (318.15 K) 215 ± 15; (328.15 K) 202 ± 14; (338.15 K) 189 ± 13; (348.15 K) 179 ± 12; (358.15 K) 169 ± 12; (368.15 K) 161 ± 11.
For `COC(C)=O` [methyl ethanoate] + CC[N+]1(C)CCOCC1.N#CN=C=[N-], the activity coefficient worked out at 2.86 ± 0.2 (318.15 K); 3.02 ± 0.21 (328.15 K); 3.18 ± 0.22 (338.15 K); 3.34 ± 0.23 (348.15 K); 3.5 ± 0.24 (358.15 K); 3.65 ± 0.25 (368.15 K).
In the case of `CCCCCCCC` [octane] + CC[N+]1(C)CCOCC1.N#CN=C=[N-], the activity coefficient by setting is: (318.15 K) 1130 ± 78; (328.15 K) 1010 ± 70; (338.15 K) 903 ± 62; (348.15 K) 814 ± 56; (358.15 K) 737 ± 51; (368.15 K) 672 ± 46.
As to `CCc1ccccc1` [ethylbenzene] + CC[N+]1(C)CCOCC1.N#CN=C=[N-], the activity coefficient (318.15 K) was determined as 15.1 ± 1; the activity coefficient (328.15 K) came out at 15.3 ± 1; the activity coefficient (338.15 K) was 15.5 ± 1.1; the activity coefficient (348.15 K) was determined as 15.7 ± 1.1; the activity coefficient (358.15 K) was 15.8 ± 1.1; the activity coefficient (368.15 K) amounted to 16 ± 1.1.
As for `CCC(C)(C)OC` [2-methoxy-2-methylbutane] + CC[N+]1(C)CCOCC1.N#CN=C=[N-], the activity coefficient came out at 55.7 ± 3.8 (328.15 K); 57.9 ± 4 (338.15 K); 60 ± 4.1 (348.15 K); 62.2 ± 4.3 (358.15 K); 64.3 ± 4.4 (368.15 K).
Consider `C1CCCCC1` [cyclohexane] + CC[N+]1(C)CCOCC1.N#CN=C=[N-], for which the activity coefficient by setting is: (318.15 K) 168 ± 12; (328.15 K) 152 ± 10; (338.15 K) 138 ± 9; (348.15 K) 126 ± 9; (358.15 K) 115 ± 8; (368.15 K) 106 ± 7.
On to `CCOC(C)(C)C` [2-ethoxy-2-methylpropane] + CC[N+]1(C)CCOCC1.N#CN=C=[N-], for which the activity coefficient (328.15 K) was determined as 105 ± 7; the activity coefficient (338.15 K) is 108 ± 7; the activity coefficient (348.15 K) is 111 ± 8; the activity coefficient (358.15 K) turned out to be 113 ± 8; the activity coefficient (368.15 K) is 116 ± 8.
